Reference: patent US6413960B1, “Substituted pyrazolyl benzenesulfonamides for the treatment of asthma” (G.D. Searle & Co., priority 1993, dated 2002)
Read-outs that look alike come from different tables or passages of the source.

Key:
[1] = tested on: Male Sprague-Dawley rats (carrageenan hyperalgesic foot withdrawal); conditions: rat
Protocol: Rat Carrageenan-induced Analgesia Test
Male Sprague-Dawley rats were treated as previously described for the carrageenan Foot Pad Edema test. Three hours after the injection of the carrageenan, the rats were placed in a special plexiglass container with a transparent floor having a high intensity lamp as a radiant heat source, positionable under the floor. After an initial twenty minute period, thermal stimulation was begun on either the injected foot or on the contralateral uninjected foot. A photoelectric cell turned off the lamp and timer when light was interrupted by paw withdrawal. The time until the rat withdraws its foot was then measured. The withdrawal latency in seconds was determined for the control and drug-treated groups, and percent inhibition of the hyperalgesic foot withdrawal determined.

[2] = tested on: Male Sprague-Dawley rats (carrageenan foot edema)
Protocol: Rat Carrageenan Foot Pad Edema Test
Male Sprague-Dawley rats were selected in each group so that the average body weight was as close as possible. Rats were fasted with free access to water for over sixteen hours prior to the test. […] One hour later a subplantar injection of 0.1 mL of 1% solution of carrageenan/sterile 0.9% saline was administered and the volume of the injected foot was measured with a displacement plethysmometer connected to a pressure transducer with a digital indicator. Three hours after the injection of the carrageenan, the volume of the foot was again measured.

[3] = oral, 30 mg/kg body weight, inhibition of hyperalgesic foot withdrawal
[4] = oral, 10 mg/kg body weight, foot volume 3 h after carrageenan

Row | SMILES | ANALGESIA % Inhibition @ 30 mg/kg body weight [1, 3] [%] | RAT PAW EDEMA % Inhibition @ 10 mg/kg body weight [2, 4] [%] | ANALGESIA % Inhibition @ 30 mg/kg body weight ([1]; in vivo) [%] | RAT PAW EDEMA % Inhibition @ 10 mg/kg body weight ([2]; in vivo) [%]
1 | NS(=O)(=O)c1ccc(-n2nc(C(F)F)cc2-c2ccc(Cl)cc2)cc1 [Example 58, 4-[5-(4-Chlorophenyl)-3-(difluoromethyl)-1H-pyrazol-1-yl]benzenesulfonamide] | 65 | 36 | – | –
2 | COc1ccc(-c2cc(C(F)F)nn2-c2ccc(S(N)(=O)=O)cc2)cc1F [Example 59, 4-[5-(3-Fluoro-4-methoxyphenyl)-3-(difluoromethyl)-1H-pyrazol-1-yl]benzenesulfonamide] | – | – | 41 | 25
3 | COc1ccc(-c2cc(C(F)F)nn2-c2ccc(S(N)(=O)=O)cc2)cc1 [Example 60, 4-[3-Difluoromethyl-5-(4-methoxyphenyl)-1-H-pyrazol-1-yl]benzenesulfonamide] | 39 | 49 | – | –
4 | NS(=O)(=O)c1ccc(-n2nc(CO)cc2-c2ccc(Cl)cc2)cc1 [Example 171, 4-[5-(4-Chlorophenyl)-3-hydroxymethyl-1H-pyrazol-1-yl]benzenesulfonamide] | 37 | 14 | – | –
